Tested on: tonic extensor seizure
Test: Maximal Electroshock (MES) test, block of tonic extensor seizure, 45' post dose p.o.
Format: in vivo, mice
Design: key to MES test results (IA): IA: Inactive
Settings: for ED50: Mus musculus, po, 0.75 h; for ED50 / MES test results (IA) / % block (MES test) / MES test results (activity in words): mice, 45' post dose; for potency of 3-Me compound relative to 3-H compound (more potent than 3-H): MES ED50, Compd. No. 18 vs No. 17, No. 28 vs No. 27
Description: Activity in the MES test, indicating anticonvulsant activity, is characterized by a block of the tonic extensor seizure caused by applying an electric shock to mice via corneal electrodes as described in Swinyard et al., J. Pharmacol. Exp. Ther., 106, 319-330 (1952) and recorded as % block. A more recent description of current practice in anticonvulsant drug screening has also been reported by Swinyard et al., Epilepsia, 19, 409-428 (1978).

[1] = Table II, 200 mg/kg p.o., only dose tested

Compound: CN1CCSC1=NC(=O)Nc1c(Br)cccc1Br [compound 30]
- ED50 (Table II): 69.6 mg/kg

Compound: CN1CCSC1=NC(=O)Nc1ccc(C(F)(F)F)cc1 [compound 13]
- MES test results (IA) (Table II, 200 mg/kg p.o.): IA

Compound: Cc1cc(C)c(NC(=O)N=C2SCCN2C)c(C)c1 [compound 25]
- ED50 (Table II): 66.5 mg/kg

Compound: CN1CCSC1=NC(=O)Nc1c(Cl)cc(Cl)cc1Cl [compound 32]
- MES test results (IA) (Table II, 200 mg/kg p.o.): IA

Compound: CCc1cccc(CC)c1NC(=O)N=C1SCCN1C [compound 15]
- ED50 (Table II): 14.2 mg/kg

Compound: CN1CCSC1=NC(=O)Nc1ccccc1C(F)(F)F [compound 11]
- ED50 (Table II): 92.2 mg/kg

Compound: O=C(N=C1NCCS1)Nc1ccccc1 [Table I No. 1, reference compound]
- ED50 (Table I): > 200 mg/kg

Compound: CN1CCSC1=NC(=O)Nc1c(Br)cc(F)cc1Br [compound 31]
- ED50 (Table II): < 200 mg/kg
- % block (MES test) [1]: 80%
- MES test results (activity in words) [1]: Active

Compound: CN1CCSC1=NC(=O)Nc1cccc(Cl)c1 [compound 6]
- MES test results (IA) (Table II, 200 mg/kg p.o.): IA

Compound: Cc1ccc(NC(=O)N=C2SCCN2C)cc1 [compound 4]
- MES test results (IA) (Table II, 200 mg/kg p.o.): IA

Compound: Cc1ccc(NC(=O)N=C2NCCS2)cc1C [No. 22a, N-(3,4-dimethylphenyl)-N'-(2-thiazolidinylidene)urea]
- MES test results (IA) (Table II, p.o., dose not given): IA

Compound: Cc1cccc(NC(=O)N=C2SCCN2C)c1C [compound 21]
- ED50 (Table II): 37.2 mg/kg

Compound: COc1cccc(NC(=O)N=C2SCCN2C)c1 [compound 9]
- ED50 (Table II): < 200 mg/kg
- % block (MES test) [1]: 80%
- MES test results (activity in words) [1]: Active

Compound: COc1ccccc1NC(=O)N=C1SCCN1C [compound 8]
- ED50 (Table II): 235 mg/kg

Compound: CN1CCSC1=NC(=O)Nc1c(F)cccc1F [compound 29]
- ED50 (Table II): 22.7 mg/kg

Compound: Cc1ccc(NC(=O)N=C2SCCN2C)c(C)c1 [compound 20]
- ED50 (Table II): 178 mg/kg

Compound: CN1CCSC1=NC(=O)Nc1c(Cl)cccc1Cl [compound 28]
- potency of 3-Me compound relative to 3-H compound (more potent than 3-H): 4 ×
- ED50 (Table II): 17.4 mg/kg

Compound: COc1ccc(NC(=O)N=C2SCCN2C)cc1OC [compound 34]
- ED50 (Table II): > 200 mg/kg
- % block (MES test) [1]: 20%

Compound: Cc1ccc(NC(=O)N=C2SCCN2C)cc1C [compound 22]
- ED50 (Table II): > 200 mg/kg
- % block (MES test) (Table II, p.o., dose not given): 10%

Compound: COc1ccc(NC(=O)N=C2SCCN2C)cc1 [compound 10]
- MES test results (IA) (Table II, 200 mg/kg p.o.): IA

Compound: CN1CCSC1=NC(=O)Nc1cccc(C(F)(F)F)c1 [compound 12]
- MES test results (IA) (Table II, 200 mg/kg p.o.): IA

Compound: COc1cccc(OC)c1NC(=O)N=C1SCCN1C [compound 33]
- ED50 (Table II): 41.2 mg/kg

Compound: Cc1cccc(C)c1NC(=O)N=C1SCCN1C [compound 18]
- potency of 3-Me compound relative to 3-H compound (more potent than 3-H): 2.6 ×
- ED50 (Table II): 11.8 mg/kg

Compound: CCc1cccc(C)c1NC(=O)N=C1SCCN1C [compound 16]
- ED50 (Table II): 17.4 mg/kg

Compound: O=C(N=C1NCCS1)Nc1c(Cl)cccc1Cl [compound 27]
- ED50 (Table II): 70.7 mg/kg

Compound: CN1CCSC1=NC(=O)Nc1ccc([N+](=O)[O-])cc1 [compound 14]
- MES test results (IA) (Table II, 200 mg/kg p.o.): IA

Compound: Cc1ccccc1NC(=O)N=C1SCCN1C [compound 2]
- ED50 (Table II): 4.8 mg/kg

Compound: CN1CCSC1=NC(=O)Nc1ccccc1 [compound 1]
- MES test results (IA) (Table II, 100 mg/kg p.o., only dose tested): IA

Compound: Cc1ccccc1NC(=O)N=C1NCCS1 [Table I No. 2, reference compound]
- ED50 (Table I): 232 mg/kg
- % block (MES test) (Table I, 200 mg/kg p.o.): 30%

Compound: CN1CCSC1=NC(=O)Nc1cc(C(F)(F)F)cc(C(F)(F)F)c1 [compound 24]
- MES test results (IA) (Table II, 200 mg/kg p.o.): IA

Compound: CN1CCSC1=NC(=O)Nc1ccccc1Cl [compound 5]
- ED50 (Table II): < 200 mg/kg
- % block (MES test) [1]: 70%
- MES test results (activity in words) [1]: Active

Compound: Cc1cccc(C)c1NC(=O)N=C1NCCS1 [compound 17]
- ED50 (Table II): 31 mg/kg

Compound: Cc1cccc(Cl)c1NC(=O)N=C1SCCN1C [compound 26]
- ED50 (Table II): 15.3 mg/kg

Compound: Cc1ccc(C)c(NC(=O)N=C2SCCN2C)c1 [compound 19]
- ED50 (Table II): 66.1 mg/kg

Compound: CN1CCSC1=NC(=O)Nc1ccc(Cl)cc1 [compound 7]
- MES test results (IA) (Table II, 200 mg/kg p.o.): IA

Compound: Cc1cc(C)cc(NC(=O)N=C2SCCN2C)c1 [compound 23]
- MES test results (IA) (Table II, 200 mg/kg p.o.): IA

Compound: Cc1cccc(NC(=O)N=C2SCCN2C)c1 [compound 3]
- ED50 (Table II): < 200 mg/kg
- % block (MES test) [1]: 70%

From patent publication US4542144A, “Anticonvulsant N-aryl-N'-(2-thiazolidinylidene)ureas” (McNeilab Inc., priority 1983, dated 1985)
